# Test results from patent US11414454B2, “Compositions, methods, and systems for affinity-based protein identification and purification” (Auctus Biologies, Inc., priority 2017, dated 2022).
# Residues, ends and D or L forms follow the SMILES beside them. No end group written: not given here.
# Columns and labels:
# [1] = system: RPtag (large); experiment: Fluorescence anisotropy Kd of rhodamine labeled RPtag (small) peptides for RPtag (large); assay type: binding, Thermoanaerobacter tengcongensis; conditions: for effect of alanine mutation on binding affinity to RPtag(large): alanine scanning versus native; for Kd: N-terminal rhodamine tagged peptide, unlabeled RPtag (large), 50 mM Tris pH 8.0, 0.005% Tween 20, mean ± SE
# Experimental: 50 nM of RP-Tag Small (see Sequence 3, below) with an N-terminal Rhodamine B label was incubated with increasing concentrations of either RP-Tag Large (see Sequence 2) or Bovine Serum Albumin (BSA) in 50 mM Tris pH 8.0, 150 mM NaCl, 10 mM 2-mercaptoethanol, and 0.005% Tween 20 for 5 min in black 96-well plates at room temperature.
# Anisotropy was then measured, and a Kd calculated by fitting the data to the equation f=y0+(ymax−y0)*(Ptot+x+Kd−sqrt((Ptot+x+Kd)^2−4*Ptot*x))/(2*Ptot), where y0 is the baseline anisotropy, ymax is the maximum anisotropy, Ptot is the fixed concentration of labeled peptide used, x is the variable concentration of protein used, and Kd is the measured Kd.
# The indicated concentrations of RPtag (large) and an anti-His tag antibody (4E3D10H2/E3 purchased from ThermoFisher Scientific) were incubated with 1 nM rhodamine labeled native RPtag (small) peptide and 6×His peptide (Rhodamine-GHHHHHH), respectively, and fluorescence anisotropy measured. BSA incubated with native rhodamine labeled RPtag(small) is included as a control for non-specific binding. Kd's were calculated according to the equation f=y0+(ymax−y0)*(Ptot+x+Kd−sqrt((Ptot+x+Kd)^2−4*Ptot*x))/(2*Ptot), where y0 is the baseline anisotropy, ymax is the maximum anisotropy, Ptot is the fixed concentration of labeled peptide used, x is the variable concentration of protein used, and Kd is the measured Kd. We measured a Kd of 0.2±0.1 nM for RPtag(large) binding RPtag(small), and a Kd of 6±1 nM for the antibody/6×His tag pair.
# Regarding the studies shown in FIG. 14, increasing concentrations of unlabeled RPtag large with the indicated mutations (native, f137d, and f137e) were incubated for 1 h with 1 nM rhodamine labeled RPtag small peptide and the fluorescence anisotropy was measured. Resultant curves were fit with the equation f=y0+(ymax−y0)*(Ptot+x+Kd−sqrt((Ptot+x+Kd)^2−4*Ptot*x))/(2*Ptot), where y0 is the baseline anisotropy, ymax is the maximum anisotropy, Ptot is the fixed concentration of labeled peptide used, x is the variable concentration of protein used, and Kd is the measured Kd. Data are presented here as Ka=1/Kd. Log transformed Ka's were then compared by one-way ANOVA with Holm-Sidak post hoc correction. ***p<0.001, **p<0.01, *p<0.05. data are mean±SEM (n=3-4). Buffer was 50 mM Tris pH 8.0, 0.005% tween20. Proteins were expressed and purified by single step NiNTA chromatography as before. Peptides were synthesized solid-state and handled as previous.
# [2] = system: RPtag (large); experiment: Association/dissociation kinetics of RPtag (small) peptides with RPtag (large) by fluorescence anisotropy; assay type: binding, Thermoanaerobacter tengcongensis; conditions: for koff: LS dissociation, unlabeled competitor peptide; for kf: S to S* forward rate constant; for kon (M^−1 min^−1 ) (×10^7): S*-LS transition, calculated from measured koff and Kd; for kr: S* to S reverse rate constant, calculated from Keq and kf
# Experimental: Panel a depicts representative association rate kinetics traces varying native RPtag small. Rhodamine labeled RPtag small at the indicated concentration was incubated with unlabeled RPtag large and the association measured by fluorescence anisotropy. L-S complex concentration was calculated by the equation (r−rmin)/(rmax−rmin)*[S] where r is the measured anisotropy, rmin is the anisotropy in the absence of any RPtag large, rmax is the anisotropy measured in the presence of at saturating RPtag large, and [S] is the total concentration of RPtag small used in the experiment. […] Dashed cyan lines are simulations of the mechanism shown in f using the rate constants detailed herein. The concentrations in the simulations were multiplied by a correction factor of 0.925, which is well within the 90% purity specification of the purchased peptide.
# LS complex was performed by incubating 1000 nM RPtag large with the indicated concentrations of rhodamine labeled RPtag small. At the start of the experiment, 0.1 mM unlabeled native RPtag small was added and fluorescence anisotropy monitored. Data processing was done as in panel a, except the red fits were to the single exponential decay equation y=y0+A*exp(−b*t). As expected, the initial dissociation rates were linear with respect to the LS complex.
# Fitting to a line yields a rate constant (koff)=0.0091 min^−1 (FIG. 9 panel e). In good agreement, when the kinetics are fit with a first order rate law, a rate constant of 0.012±0.002 min^−1 (n=15) was observed. […] Panel e is a graph of the initial rates of the traces represented in d. Slope of the fit line is 0.0091 min^−1. Data are mean±SE (n=3).
# The library of mutant RPtag(small) peptides, described above, was next analyzed to measure off rates (koff). The on rate was also calculated from measured koff and Kd (S*-LS transition), except instead of using unlabeled native peptide as the competitor, we used unlabeled Nd2,P5A,E18A (the tightest binding RPtag(small) peptide identified). […] However, there were notable exceptions. […] This indicates, without wishing to be limited, that P5 may constrain the structure of the peptide. The increased flexibility imparted to the peptide by the P5A mutation may decrease the energy barrier required for binding/unbinding.
Molecule,effect of alanine mutation on binding affinity to RPtag(large) [1],koff [2] [min⁻¹],kf [2] [min⁻¹],kon (M^−1 min^−1 ) (×10^7) [2],Kd [1] [nM],kr [2] [min⁻¹]
"GEKIPNFIPAELKLITKENVQ [q21a, RPtag(small) with Q21 changed to alanine]",significantly increased binding affinity,0.0034 ± 0.0003,0.087 ± 0.005,–,–,–
GEKIPNFIPAELKLITKANVQ [e18a],significantly increased binding affinity,0.0087 ± 0.0004,–,16 ± 0.8 ×10^7 M^−1 min^−1,–,–
GEKIPNFIAPELALITKENVQ [k13a],–,0.018 ± 0.001,–,1.7 ± 0.1 ×10^7 M^−1 min^−1,1.1 ± 0.1,–
ITKENVQ [Nd14],–,–,–,–,> 100000,–
GAKIPNFIPAELKLITKENVQ [e2a],significantly increased binding affinity,0.0053 ± 0.0007,–,5.1 ± 0.7 ×10^7 M^−1 min^−1,–,–
GEKIPN [Cd15],–,–,–,–,> 100000,–
TKENVQ [Nd15],–,–,–,–,> 100000,–
"AIANFIPAELKLITKANVQ [Nd2, k3a, e18a]",–,0.032 ± 0.001,–,2.6 ± 0.1 ×10^7 M^−1 min^−1,0.88 ± 0.01,–
"GEKIPNFIPAELKLITKENVQ [v20a, RPtag(small) with V20 changed to alanine]",–,0.012 ± 0.001,0.073 ± 0.003,6.8 ± 0.5 ×10^7 M^−1 min^−1,0.18 ± 0.03,–
GEKIPNFIPAELK [Cd8],–,–,–,–,> 100000,–
GEKIPNFI [Cd13],–,–,–,–,> 100000,–
GEKIPNFIPA [Cd11],–,–,–,–,> 100000,–
GEKIP [Cd16],–,–,–,–,> 100000,–
"GEKIPNFIPAELKLITKENVQ [n19a, RPtag(small) with N19 changed to alanine]",–,0.037 ± 0.003,0.089 ± 0.003,14 ± 1 ×10^7 M^−1 min^−1,0.26 ± 0.02,0.057 ± 0.008
GEKIPNF [Cd14],–,–,–,–,> 100000,–
CC[C@H](C)[C@H](NC(=O)[C@H](CC(C)C)NC(=O)[C@H](CCCCN)NC(=O)[C@H](CC(C)C)NC(=O)[C@H](CCC(=O)O)NC(=O)[C@H](C)NC(=O)[C@@H]1CCCN1C(=O)[C@@H](NC(=O)[C@H](Cc1ccccc1)NC(=O)[C@H](CC(N)=O)NC(=O)[C@@H]1CCCN1C(=O)[C@@H](NC(=O)[C@H](CCCCN)NC(=O)[C@H](CCC(=O)O)NC(=O)[C@H](C)N)[C@@H](C)CC)[C@@H](C)CC)C(=O)N[C@H](C(=O)N[C@@H](CCCCN)C(=O)N[C@@H](CCC(=O)O)C(=O)N[C@@H](CC(N)=O)C(=O)N[C@H](C(=O)N[C@@H](CCC(N)=O)C(=O)O)C(C)C)[C@@H](C)O [g1a],–,0.0047 ± 0.0003,0.086 ± 0.004,1.6 ± 0.1 ×10^7 M^−1 min^−1,0.29 ± 0.03,0.037 ± 0.001
GEKIPNFIPAELKLITKENV [Cd1],–,0.0061 ± 0.0006,0.10 ± 0.01,1.1 ± 0.1 ×10^7 M^−1 min^−1,0.55 ± 0.04,0.042 ± 0.007
"FIPAELKLITK [Nd6, Cd4, FIPAELKLITK]",–,>2,–,–,9.9 ± 1.1,–
"CC(C)[C@H](NC(=O)[C@H](CC(N)=O)NC(=O)[C@@H](N)CCC(=O)O)C(=O)N[C@@H](CCC(N)=O)C(=O)O [Nd17, ENVQ] (H-ENVQ-OH; N-terminus and C-terminus assumed)",–,–,–,–,> 100000,–
KENVQ [Nd16],–,–,–,–,> 100000,–
GEKIPNFIPAEL [Cd9],–,–,–,–,> 100000,–
GEKIPNFIPAE [Cd10],–,–,–,–,> 100000,–
